Results as given in patent publication US9096599B2, “Spiroindoline compounds” (Intervet Inc., priority 2011, dated 2015).

System: Ascaridia galli (L3) and Oesophagostumum dentatum (L3 and L4) larvae
Assay: In vitro anthelmintic larval test, minimum effective concentration by microscopic examination
Format: cell-based
Conditions: activity against one or both of the nematodes (A. galli L3; O. dentatum L3, L4), 96-well plates, 20 larvae per well, vs DMSO-control, read-out: minimum effective concentration (MEC)
Protocol: C: Biological Examples Efficacy Against Ascaridia galli and Oesophagostomum dentatum
Anthelmintic effects of compounds of this invention (numbers refer to compound numbers in Table I) were tested in vitro using gut-welling larval stages of two parasitic nematode species: Ascaridia galli (intestinal roundworm of chicken), larval stage 3 (“L3”); and Oesophagostumum dentatum (nodular worm of swine), larval stages 3 and 4 (respectively “L3” and “L4”). When conducting these experiments, DMSO-solutions of various concentrations of compounds of this invention were prepared and incubated in 96-well microtiter plates. The parasites were then distributed at 20 larvae per well. The anthelmintic effects were classified by microscopic examination. The microscopic examination included assessing mortality, damage, motility, progression of development, and neutral red uptake by the larvae in comparison to a DMSO-control.

SMILES | minimal effective concentration
Cc1cc(C(=O)N2CC3(CCN(C/C=C/c4ccc(F)cc4)CC3)c3cc(Sc4ccc(F)cc4)ccc32)ccn1 [Compound 37, [1′-[(E)-3-(4-fluorophenyl)allyl]-5-(4-fluorophenyl)sulfanyl-spiro[indoline-3,4′-piperidine]-1-yl]-(2-methyl-4-pyridyl)methanone] | ≤ 50 µM
O=C(c1ccnc(Cl)c1)N1CC2(CCN(C/C=C/c3ccc(F)cc3F)CC2)c2cc(Sc3ccc(F)cc3)ccc21 [Compound 38, (2-chloro-4-pyridyl)-[1′-[(E)-3-(2,4-difluorophenyl)allyl]-5-(4-fluorophenyl)sulfanyl-spiro[indoline-3,4′-piperidine]-1-yl]methanone] | ≤ 50 µM
Cc1cc(C(=O)N2CC3(CCN(C/C=C/c4ccc(F)cc4F)CC3)c3cc(Sc4ccc(F)cc4)ccc32)cc(Cl)n1 [Compound 39, (2-chloro-6-methyl-4-pyridyl)-[1′-[(E)-3-(2,4-difluorophenyl)allyl]-5-(4-fluorophenyl)sulfanyl-spiro[indoline-3,4′-piperidine]-1-yl]methanone] | ≤ 50 µM
Cc1cc(C(=O)N2CC3(CCN(C/C=C/c4ccc(F)cc4F)CC3)c3cc(Sc4ccc(F)cc4)ccc32)ccn1 [Compound 40, [1′-[(E)-3-(2,4-difluorophenyl)allyl]-5-(4-fluorophenyl)sulfanyl-spiro[indoline-3,4′-piperidine]-1-yl]-(2-methyl-4-pyridyl)methanone] | ≤ 50 µM
